Test results from patent publication US20230339991A1, “HYPOXIA-ACTIVATED DNA ALKYLATING AGENT AND MEDICAL USE THEREOF” (ASCENTAWITS PHARMACEUTICALS, LTD., priority 2020, published 2023).
Several values for one entry are separate records, joined by “and”; a condition that tells them apart may be missing. Identical values can stand only once. Like-named read-outs stand apart in the source and are kept apart here. Marks after values point to notes of the source that are not given here.

Columns and labels:
[1] = Plasma stability, monkey; type: in vitro ADME
Experimental: (§1) The pH of the plasma was checked and recorded. Note: a.
(§2) The final concentration of solvent was 0.5%.
(§3) The assay is performed in duplicate.

[2] = biological target: T1, CYP450R enzyme (Homo sapiens, UniProt P16435); experiment: Hypoxia-dependent reduction experiments; type: biochemical
T1 sequence (P16435 1-677): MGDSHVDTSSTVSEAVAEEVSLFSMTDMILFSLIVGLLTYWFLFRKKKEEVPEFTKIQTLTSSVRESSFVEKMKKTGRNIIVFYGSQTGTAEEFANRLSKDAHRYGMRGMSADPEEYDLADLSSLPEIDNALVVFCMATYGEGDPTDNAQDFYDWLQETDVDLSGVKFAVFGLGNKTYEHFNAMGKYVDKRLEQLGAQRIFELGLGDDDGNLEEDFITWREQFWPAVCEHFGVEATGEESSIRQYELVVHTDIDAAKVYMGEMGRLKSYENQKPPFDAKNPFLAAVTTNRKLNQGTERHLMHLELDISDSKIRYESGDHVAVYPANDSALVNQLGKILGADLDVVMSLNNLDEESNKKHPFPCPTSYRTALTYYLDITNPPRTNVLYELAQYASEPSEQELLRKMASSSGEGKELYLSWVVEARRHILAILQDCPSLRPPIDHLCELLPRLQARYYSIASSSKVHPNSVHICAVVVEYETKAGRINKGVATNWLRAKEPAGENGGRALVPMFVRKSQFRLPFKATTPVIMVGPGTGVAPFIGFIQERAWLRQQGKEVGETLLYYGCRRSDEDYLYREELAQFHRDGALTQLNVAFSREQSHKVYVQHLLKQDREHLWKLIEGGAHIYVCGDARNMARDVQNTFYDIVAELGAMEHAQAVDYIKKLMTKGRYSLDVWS
Experimental: The ingredients were added to each test tube without the addition of NADPH. Then 50 μl of sample from condition B was transferred to 100 μl acetonitrile (T=0). For samples to be tested under hypoxic conditions, the test tubes were placed in an hypoxic chamber (BACTRON anaerobic/environmental chamber). The reaction was initiated by adding NADPH to test tubes A and C and the sample was then placed at 37° C. For samples to be tested in air, the test tubes were placed in a hot plate at 37° C. After 30 minutes and 2 hours of incubation, 50 μl of samples were taken from each test tube and mixed with 100 μl acetonitrile. Any protein precipitate was removed by spinning all test tubes and placed into HPLC vials for analysis. The results were compared to the calibration curve of the real standard.

[3] = Plasma stability, human; type: in vitro ADME
Experimental: as §1, §2, §3

[4] = tested on: H460 cells; experiment: Clonogenic assay, H460; type: cell-based, human; conditions: for IC90: Homo sapiens, NCI-H460, 3 h
Experimental: (§4) The following PSN-1 cells, PANC1 cells, MiaPaCa-2 cells, H460 cells, DLD-1 WT (wild type) cells, DLD-1 BRCA2 KO (BRCA2 deletion) cells were seeded in 10 cm vitreous cell culture plates at specific cell numbers and incubated for 2 days at 37° C. and under the conditions of 5% CO2, 95% air and 100% relative humidity. On day 3, test compounds TH302 or AST-002-P2 at the specific concentrations were added to the cells, and incubated for 3 hours together with the cells under normoxic (21% O2) and hypoxic conditions (<0.01% O2), respectively. After cells were stimulated by compounds, the cells were washed once with 1×PBS and digested into single cells with pancreatic enzymes for cell counting. The above cells in specific cell numbers were reseeded in a new culture plate and cultured for 7 days to perform single cell colony formation. When single cells in compound culture plates stimulated under normoxic conditions proliferated to about 50 cells, the cultures were removed and stained with 0.5% crystal violet for 40 minutes. After staining, cells were counted for colonies using Colony Counter (VWR) and the IC90 was calculated.

[5] = Blood-brain barrier experiment, brain and plasma concentrations after IV dosing; type: in vivo, CD-1 mice; conditions: for half-life: read-out: T½ (converted)
Experimental: Three CD-1 […] were administered 1 mg/kg of the test compound intravenously at each time point. Blood and brain tissue were collected at 5 min, 15 min, 1 h, 2 h, 4 h and 8 h after administration.

[6] = tested on: PSN-1 cells; experiment: Clonogenic assay, PSN-1; type: cell-based, human; conditions: for IC90: Homo sapiens, PSN1, 3 h
Experimental: as §4

[7] = 21% O2, read-out: IC90 Normoxia
[8] = <0.01% O2, read-out: IC90 Hypoxia
[9] = CD-1, mouse, plasma, IV 1 mg/kg
[10] = IV 1 mg/kg, 0.083 h, single animals, 1 mg/kg
[11] = IV 1 mg/kg, 0.25 h, single animals, 1 mg/kg
[12] = IV 1 mg/kg, 1 h, single animals, 1 mg/kg
[13] = IV 1 mg/kg, 2 h, single animals, 1 mg/kg
[14] = IV 1 mg/kg, 4 h, single animals
[15] = IV 1 mg/kg, 8 h, single animals

Q: Which “Remaining percentage (%)” value ([1]; Monkey plasma, 15 min) does the source give for `O=[N+]([O-])c1ccc(C(OP(=O)(N2CC2)N2CC2)C(F)(F)F)c2ccccc12` (racemic) [Compound A] here?
A: 97.9 ± 3.72%

Q: What about the “Remaining percentage (%)” value ([1]; Monkey plasma, 60 min) of the same compound?
A: 103 ± 4.19%

Q: And the “Remaining percentage (%)” value ([1]; Monkey plasma, 90 min)?
A: 92.3 ± 2.15%

Q: And the “Remaining percentage (%)” value ([1]; Monkey plasma, 120 min)?
A: 87.4% and 87.4 ± 1.59%

Q: And the “Remaining percentage (%)” value ([1]; Monkey plasma, 2 h time course, 0 min)?
A: 100%

Q: And the t½ ([1]; Monkey plasma, in vitro)?
A: >373* min

Q: What about the half-life at 5 µM ([1]; Monkey plasma, in vitro, read-out: t½) of the same compound?
A: > 373 min

Q: What about the “Remaining percentage (%)” value ([1]; Monkey plasma, time course, 30 min) of the same compound?
A: 107 ± 2.78%

Q: What about the “plasma stability” value ([1]; monkey plasma) of the same compound?
A: stable

Q: And the “reduction rate compared (compound A vs TH-302)” value ([2]; NADPH and CYP 450R enzymes)?
A: similar

Q: What about the hypoxia-dependent reduction reaction ([2]; in the presence of NADPH and CYP 450R enzymes, 37° C.) of the same compound?
A: showed a hypoxia-dependent reduction reaction

Q: What about the “Remaining percentage (%)” value ([3]; Human plasma, 15 min) of the same compound?
A: 108 ± 0.773%

Q: And the “Remaining percentage (%)” value ([3]; Human plasma, 60 min)?
A: 99.2 ± 3.39%

Q: What about the “Remaining percentage (%)” value ([3]; Human plasma, 90 min) of the same compound?
A: 93.8 ± 3.12%

Q: And the “Remaining percentage (%)” value ([3]; Human plasma, 120 min)?
A: 89.7% and 89.7 ± 4.43%

Q: And the “Remaining percentage (%)” value ([3]; Human plasma, 2 h time course, 0 min)?
A: 100%

Q: And the Remaining percentage ([3]; Human plasma, after 30 minutes, 5 μM, 37° C.)?
A: 68.68%

Q: And the t½ ([3]; Human plasma, in vitro)?
A: >373* min

Q: And the half-life at 5 µM ([3]; Human plasma, in vitro, read-out: t½)?
A: > 373 min

Q: What about the “Remaining percentage (%)” value ([3]; Human plasma, time course, 30 min) of the same compound?
A: 102 ± 3.85%

Q: What about the “plasma stability” value ([3]; human plasma) of the same compound?
A: stable

Q: Which IC90 [4, 7] does the source give for `O=[N+]([O-])c1ccc([C@@H](OP(=O)(N2CC2)N2CC2)C(F)(F)F)c2ccccc12` (single isomer, unassigned) [Compound C] here?
A: 66 nM

Q: And the IC90 [4, 8]?
A: 41 nM

Q: What about the HCR ([4]; IC90 ratio normoxic/N2) of the same compound?
A: 1.6

Q: And the concentration at 0.083 h ([5]; CD-1, mouse, brain, iv, 1 mg/kg, IV 1 mg/kg, 0.083 h, single animals, read-out: Brain concentration)?
A: 415 ng/g

Q: What about the concentration at 0.25 h ([5]; CD-1, mouse, brain, iv, 1 mg/kg, IV 1 mg/kg, 0.25 h, single animals, read-out: Brain concentration) of the same compound?
A: 146 ng/g

Q: And the concentration at 1 h ([5]; CD-1, mouse, brain, iv, 1 mg/kg, IV 1 mg/kg, 1 h, single animals, read-out: Brain concentration)?
A: 28.6 ng/g

Q: What about the Kp at 0.083 h ([5]; CD-1, mouse, brain/plasma, iv, 1 mg/kg, IV 1 mg/kg, 0.083 h, read-out: Mean Ratio (Brain/Plasma)) of the same compound?
A: 1.07

Q: What about the Kp at 0.083 h ([5]; CD-1, mouse, brain/plasma, iv, 1 mg/kg, IV 1 mg/kg, 0.083 h, single animals, read-out: Ratio (Brain/Plasma)) of the same compound?
A: 0.99

Q: And the Kp at 0.25 h ([5]; CD-1, mouse, brain/plasma, iv, 1 mg/kg, IV 1 mg/kg, 0.25 h, single animals, read-out: Ratio (Brain/Plasma))?
A: 0.82

Q: What about the Kp at 1 h ([5]; CD-1, mouse, brain/plasma, iv, 1 mg/kg, IV 1 mg/kg, 1 h, read-out: Mean Ratio (Brain/Plasma)) of the same compound?
A: 0.54

Q: What about the Kp at 1 h ([5]; CD-1, mouse, brain/plasma, iv, 1 mg/kg, IV 1 mg/kg, 1 h, single animals, read-out: Ratio (Brain/Plasma)) of the same compound?
A: 0.52

Q: What about the Kp at 2 h ([5]; CD-1, mouse, brain/plasma, iv, 1 mg/kg, IV 1 mg/kg, 2 h, read-out: Mean Ratio (Brain/Plasma)) of the same compound?
A: 1.11

Q: What about the Kp ([5]; CD-1, mouse, brain/plasma, iv, 1 mg/kg, IV 1 mg/kg, read-out: AUClnf Ratio (Brain/Plasma)) of the same compound?
A: 0.73

Q: What about the concentration at 0.083 h ([5]; CD-1, mouse, plasma, iv, 1 mg/kg, IV 1 mg/kg, 0.083 h, single animals, read-out: Plasma concentration) of the same compound?
A: 417 ng/mL

Q: What about the concentration at 0.25 h ([5]; CD-1, mouse, plasma, iv, 1 mg/kg, IV 1 mg/kg, 0.25 h, single animals, read-out: Plasma concentration) of the same compound?
A: 179 ng/mL

Q: What about the half-life ([5]; CD-1, mouse, brain tissue, IV 1 mg/kg) of the same compound?
A: 21 min

Q: And the AUC(0-t) [5, 9]?
A: 188 ng·h/mL

Q: And the C0 [5, 9]?
A: 694 ng/mL

Q: And the half-life [5, 9]?
A: 18 min

Q: What about the Brain concentration [5, 10] of the same compound?
A: 541.99 ng/g and 377.29 ng/g

Q: What about the Plasma concentration [5, 10] of the same compound?
A: 390.41 ng/mL and 456.85 ng/mL

Q: And the “Ratio (Brain/Plasma)” value [5, 10]?
A: 1.39 and 0.83

Q: And the Brain concentration [5, 11]?
A: 131.63 ng/g and 120.75 ng/g

Q: And the Plasma concentration [5, 11]?
A: 132.02 ng/mL and 154.92 ng/mL

Q: What about the “Ratio (Brain/Plasma)” value [5, 11] of the same compound?
A: 1.00 and 0.78

Q: What about the Brain concentration [5, 12] of the same compound?
A: 18.01 ng/g and 15.01 ng/g

Q: And the Plasma concentration [5, 12]?
A: 54.81 ng/mL and 25.61 ng/mL and 37.23 ng/mL

Q: What about the “Ratio (Brain/Plasma)” value [5, 12] of the same compound?
A: 0.70 and 0.40

Q: What about the Brain concentration [5, 13] of the same compound?
A: 8.31 ng/g and 1.90 ng/g and BLOQ

Q: What about the Plasma concentration [5, 13] of the same compound?
A: 4.69 ng/mL and 2.16 ng/mL and 1.64 ng/mL

Q: What about the “Ratio (Brain/Plasma)” value [5, 13] of the same compound?
A: 0.88

Q: And the Brain concentration [5, 14]?
A: BLOQ

Q: And the Plasma concentration [5, 14]?
A: BLOQ

Q: And the Brain concentration [5, 15]?
A: BLOQ

Q: What about the Plasma concentration [5, 15] of the same compound?
A: BLOQ

Q: And the AUClast ([5]; brain tissue, IV 1 mg/kg)?
A: 136.59 ng·h/g

Q: And the AUClnf ([5]; brain tissue, IV 1 mg/kg)?
A: 138.68 ng·h/g

Q: And the MRTlnf_obs ([5]; brain tissue, IV 1 mg/kg)?
A: 20.4 min

Q: And the blood-brain barrier penetration ([5]; detected in brain tissue)?
A: can penetrate the blood-brain barrier

Q: What about the Cl_obs ([5]; plasma, IV 1 mg/kg) of the same compound?
A: 87.92 mL/min/kg

Q: What about the MRTlnf_obs ([5]; plasma, IV 1 mg/kg) of the same compound?
A: 19.8 min

Q: What about the Vss_obs ([5]; plasma, IV 1 mg/kg) of the same compound?
A: 1.73 L/kg

Q: And the IC90 [6, 7]?
A: > 1000 nM

Q: What about the IC90 [6, 8] of the same compound?
A: 286 nM

Q: And the HCR ([6]; IC90 ratio normoxic/N2)?
A: >3.5
